# Test results as given in patent US20110178105A1, “CLINICAL BENEFITS OF EICOSAPENTAENOIC ACID IN HUMANS” (E.I. DU PONT DE NEMOURS AND COMPANY, priority 2010, published 2011).
# “And” between values parts separate entries of the source, which are not always exact repeats. Equal values may be shown once.
# Legend:
# [1] = Clinical study: fasting serum lipids, lipoproteins and apolipoproteins (automated analyzer); type: in vivo, human; conditions: 6 weeks; for HDL C, 6-Week Change (%) / HDL C, Final / LDL C, Final / Lp(a), 6-Week Change (%) / Lp(a), Final / Total Cholesterol, 6-Week Change (%) / Total Cholesterol, Final / Triglyceride, 6-Week Change (%) / Triglyceride, Final / apoA-I, 6-Week Change (%) / apoA-I, Final / apoB, 6-Week Change (%) / apoB, Final / sdLDL, 6-Week Change (%) / sdLDL, Final / LDL C, 6-Week Change (%): Fast
# Method: At visit 2, subjects were again asked to fast for 12 hours, and information about subject characteristics including all vital signs, recent illness or hospitalization, medication and supplement use, and diet information was again obtained. Subjects then had blood drawn for a metabolic profile and complete blood counts. […] Subjects (30 in each group) were then randomized equally for 6 weeks to one of four treatment arms: 1) olive oil placebo; 2) 600 mg of EPA/day; 3) 1800 mg of EPA/day; and, 4) 600 mg of DHA/day. At one week and three weeks after beginning the supplements, all study subjects were contacted by telephone and asked about any adverse effects and about their compliance, and the information on their calendars with regard to capsule use and fish intake. They were also asked about whether they had experienced any fishy aftertaste or odor, and if so, how frequent were these episodes, and how unpleasant were they? The entire process as listed above was repeated after study subjects were on the study capsules for 6 weeks at the time of the final visit. Compliance and adverse events were assessed by telephone at weeks 1 and 3 by telephone and at week 6 by questionnaire and capsule count. Over 42 days, subjects were expected to have consumed a total of 252 capsules. Compliance was calculated as a percentage of consumed capsule count/expected capsule count based on the number of days the subject was in the study. All subjects were asked to stay on their capsules until they come in for their final visit. Compliance in all participants who completed the study was based on capsule count was in excess of 85%, mean 96%.
# (§1) The following laboratory measurements were carried out on an automated analyzer (Roche Diagnostics, Indianapolis, Ind.) on samples obtained in the fasting state at the randomization visit, and the final visits using frozen aliquots of serum stored at −80 degrees Celsius: 1) total cholesterol; 2) triglycerides; 3) direct high density lipoprotein [“HDL”] cholesterol; 4) direct low density lipoprotein [“LDL”] cholesterol; 5) direct small dense LDL cholesterol; 6) apolipoprotein [“apo”] B; 7) apoA-I; 8) lipoprotein (a); 9) fibrinogen; 10) high sensitivity C reactive protein [“hs-CRP”]; 11) lipoprotein associated phospholipase A2 [“Lp-PLA2”]; and, 12) insulin as previously described. See, McNamara, J. R. and Schaefer, E. J., Clin. Chim. Acta, 166:1-8 (1987); Okada, M. et al., J. Lab. Clin. Med., 132:195-201 (1998); Hirano, T. et al., J. Lipid Res., 44:2193-2201 (2003); Ai, M. et al., Am. J. Cardiol., 101:315-318 (2008); Ingelsson, E. et al., JAMA, 298:776-785 (2007); Jenner, J. L. et al., Circulation, 87:1135-1141 (1993); Schaefer, E. J. et al., Am. J. Cardiol., 95:1025-1032 (2005); McNamara, J. R. et al., Atherosclerosis, 154:229-236 (2001).
# On the samples obtained 4 hours after the fat-rich meal, total cholesterol, triglycerides, direct HDL cholesterol, and direct LDL cholesterol were measured. Direct LDL cholesterol and small dense LDL cholesterol levels were measured using kits obtained from Denka-Seiken Corporation, (Tokyo, Japan), as previously described (Okada, M. et al., supra; Hirano, T. et al., supra; Ai, M. et al., supra). Remnant lipoprotein cholesterol was measured using kits obtained from Polymedco (Cortland Manor, N.Y.) and manufactured by Otsuka Corporation (Tokyo, Japan) as previously described (McNamara, J. R. et al., Atherosclerosis, supra). All lipid assays are standardized through the Lipid Research Clinics standardization program of the Centers for Disease Control (Atlanta, Ga.). All assays had between and within run coefficients of variation of <5%. Serum fatty acid profiles were analyzed by Nutrasource Diagnostics (Guelph, Ontario, Canada).
# [2] = Clinical study: fasting insulin and glucose; type: in vivo, human; conditions: 6 weeks
# Method: Standard chemistry tests were carried at all visits (screening, enrollment, and final study visit after an overnight fast by Quest Laboratories, Cambridge, Mass.): blood urea nitrogen, creatinine, calculated glomerular filtration rate, sodium, potassium, chloride, carbon dioxide, calcium, total protein, albumin, globulin, total bilirubin, alkaline phosphatase, liver transaminases AST and ALT, and glucose. A complete blood count was also performed at all visits and included: hemoglobin, hematocrit, red blood cell count, platelet count, white blood cell count and a white blood cell count differential. Additional tests included: prothrombin time, and measurement of thyroid function including T3, T4 and T3 uptake. All subjects entering the study were required to have: liver function tests (i.e., transaminases) of less than 3 times the upper limits of normal; bilirubin and alkaline phosphatase values in the normal range; serum creatinine levels of less than 2.5 mg/dl; hemoglobin levels over 11 g/dl; a normal prothrombin time; a fasting blood glucose below 200 mg/dl; and, a blood pressure below 170/110 mmHg. All subjects who qualified for the study and met all the screening and laboratory entry criteria were scheduled for an enrollment visit within one month of screening.
# At visit 2, subjects were again asked to fast for 12 hours, and information about subject characteristics including all vital signs, recent illness or hospitalization, medication and supplement use, and diet information was again obtained. […] At one week and three weeks after beginning the supplements, all study subjects were contacted by telephone and asked about any adverse effects and about their compliance, and the information on their calendars with regard to capsule use and fish intake. They were also asked about whether they had experienced any fishy aftertaste or odor, and if so, how frequent were these episodes, and how unpleasant were they? The entire process as listed above was repeated after study subjects were on the study capsules for 6 weeks at the time of the final visit. Compliance and adverse events were assessed by telephone at weeks 1 and 3 by telephone and at week 6 by questionnaire and capsule count. Over 42 days, subjects were expected to have consumed a total of 252 capsules. Compliance was calculated as a percentage of consumed capsule count/expected capsule count based on the number of days the subject was in the study. All subjects were asked to stay on their capsules until they come in for their final visit. Compliance in all participants who completed the study was based on capsule count was in excess of 85%, mean 96%.
# as §1
# [3] = cited from earlier work; for effects on C-reactive protein, interleukin-6, or tumor necrosis alpha: 4 grams per day; for reduction of triglyceride levels: overweight, hyperlipidemic men
smiles,measurement,setting,value
"CCC=CCC=CCC=CCC=CCC=CC/C=C\CCC(=O)O [DHA, cis-4,7, 10, 13, 16, 19-docosahexaenoic acid, reference compound]","HDL C, 6-Week Change (%)",[1]; DHA 600 mg (n = 28),+1.3 ± 14.7%
same,"HDL C, Final",[1]; DHA 600 mg (n = 28),62.0 ± 23.7 mg/dL
same,"LDL C, Final",[1]; DHA 600 mg (n = 28),130.3 ± 37.2 mg/dL
same,"Lp(a), 6-Week Change (%)",[1]; DHA 600 mg (n = 28),+27.7 ± 156.3%
same,"Lp(a), Final",[1]; DHA 600 mg (n = 28),40.0 ± 40.1 mg/dL
same,"Total Cholesterol, 6-Week Change (%)",[1]; DHA 600 mg (n = 28),+2.9 ± 12.0%
same,"Total Cholesterol, Final",[1]; DHA 600 mg (n = 28),216.1 ± 44.1 mg/dL
same,"Triglyceride, 6-Week Change (%)",[1]; DHA 600 mg (n = 28),−5.8 ± 30.4%
same,"Triglyceride, Final",[1]; DHA 600 mg (n = 28),104.4 ± 58.0 mg/dL
same,"apoA-I, 6-Week Change (%)",[1]; DHA 600 mg (n = 28),−2.0 ± 10.5%
same,"apoA-I, Final",[1]; DHA 600 mg (n = 28),177.5 ± 43.0 mg/dL
same,"apoB, 6-Week Change (%)",[1]; DHA 600 mg (n = 28),+6.0 ± 15.6%
same,"apoB, Final",[1]; DHA 600 mg (n = 28),97.1 ± 25.7 mg/dL
same,"sdLDL, 6-Week Change (%)",[1]; DHA 600 mg (n = 28),−2.2 ± 24.7%
same,"sdLDL, Final",[1]; DHA 600 mg (n = 28),31.1 ± 13.3 mg/dL
same,"Insulin, 6-Week Change (%)","[2]; DHA 600 mg (n = 28), Fast",+26.7 ± 79.8%
same,"Insulin, Final","[2]; DHA 600 mg (n = 28), Fast",8.4 ± 4.1 µIU/mL
same,"effects on C-reactive protein, interleukin-6, or tumor necrosis alpha",[3],no significant effects
same,HDL2 cholesterol,[3]; 4 grams/day,significantly increased
same,forearm blood flow in response to acetylcholine infusion relative to placebo,[3]; 4 grams/day,significantly increased
same,reduction of triglyceride levels,[3]; 4 grams/day,20%
"CCC=CCC=CCC=CCC=CC/C=C\CCCC(=O)O [EPA, cis-5,8, 11, 14, 17-eicosapentaenoic acid]",LDL cholesterol levels,[1]; FIG. 5,did not increase
same,"HDL C, 6-Week Change (%)",[1]; EPA 600 mg (n = 27),+0.4 ± 13.7%
same,"HDL C, Final",[1]; EPA 600 mg (n = 27),57.9 ± 18.0 mg/dL
same,"LDL C, 6-Week Change (%)",[1]; EPA 600 mg (n = 27),−2.5 ± 11.7%
same,"LDL C, Final",[1]; EPA 600 mg (n = 27),118.1 ± 35.8 mg/dL
same,"Lp(a), 6-Week Change (%)",[1]; EPA 600 mg (n = 27),+18.3 ± 84.8%
same,"Lp(a), Final",[1]; EPA 600 mg (n = 27),32.8 ± 32.4 mg/dL
same,"Total Cholesterol, 6-Week Change (%)",[1]; EPA 600 mg (n = 27),−1.8 ± 9.5%
same,"Total Cholesterol, Final",[1]; EPA 600 mg (n = 27),199.2 ± 48.7 mg/dL
same,"Triglyceride, 6-Week Change (%)",[1]; EPA 600 mg (n = 27),−1.3 ± 31.6%
same,"Triglyceride, Final",[1]; EPA 600 mg (n = 27),107.0 ± 43.2 mg/dL
same,"apoA-I, 6-Week Change (%)",[1]; EPA 600 mg (n = 27),−1.3 ± 12.4%
same,"apoA-I, Final",[1]; EPA 600 mg (n = 27),173.6 ± 36.3 mg/dL
same,"apoB, 6-Week Change (%)",[1]; EPA 600 mg (n = 27),−2.3 ± 10.9%
same,"apoB, Final",[1]; EPA 600 mg (n = 27),90.1 ± 22.8 mg/dL
same,"sdLDL, 6-Week Change (%)",[1]; EPA 600 mg (n = 27),−7.3 ± 18.2%
same,"sdLDL, Final",[1]; EPA 600 mg (n = 27),29.5 ± 12.0 mg/dL
same,decrease versus baseline in small dense LDL cholesterol,"[1]; EPA 600 mg/day, p=0.0087",7.3%
same,"HDL C, 6-Week Change (%)",[1]; EPA 1800 mg (n = 29),+2.5 ± 12.7%
same,"HDL C, Final",[1]; EPA 1800 mg (n = 29),59.9 ± 15.7 mg/dL
same,"LDL C, 6-Week Change (%)",[1]; EPA 1800 mg (n = 29),−2.0 ± 13.7%
same,"LDL C, Final",[1]; EPA 1800 mg (n = 29),120.6 ± 26.8 mg/dL
same,"Lp(a), 6-Week Change (%)",[1]; EPA 1800 mg (n = 29),+5.1 ± 26.1%
same,"Lp(a), Final",[1]; EPA 1800 mg (n = 29),32.2 ± 23.6 mg/dL
same,"Total Cholesterol, 6-Week Change (%)",[1]; EPA 1800 mg (n = 29),−1.7 ± 11.2%
same,"Total Cholesterol, Final",[1]; EPA 1800 mg (n = 29),201.1 ± 35.3 mg/dL
same,"Triglyceride, 6-Week Change (%)",[1]; EPA 1800 mg (n = 29),−5.0% and −5.0 ± 28.6%
same,"Triglyceride, Final",[1]; EPA 1800 mg (n = 29),102.8 ± 82.8 mg/dL
same,"apoA-I, 6-Week Change (%)",[1]; EPA 1800 mg (n = 29),+0.4 ± 10.8%
same,"apoA-I, Final",[1]; EPA 1800 mg (n = 29),173.1 ± 31.3 mg/dL
same,"apoB, 6-Week Change (%)",[1]; EPA 1800 mg (n = 29),−1.6 ± 12.2%
same,"apoB, Final",[1]; EPA 1800 mg (n = 29),91.7 ± 19.1 mg/dL
same,"sdLDL, 6-Week Change (%)",[1]; EPA 1800 mg (n = 29),−8.8 ± 19.5%
same,"sdLDL, Final",[1]; EPA 1800 mg (n = 29),30.6 ± 9.4 mg/dL
same,decrease versus baseline in small dense LDL cholesterol,"[1]; EPA 1800 mg/day, p=0.018",8.8%
same,"Glucose, 6-Week Change (%)",[2]; EPA 600 mg (n = 27),+1.3 ± 14.0%
same,"Glucose, Final",[2]; EPA 600 mg (n = 27),92.1 ± 11.0 mg/dL
same,"Insulin, 6-Week Change (%)",[2]; EPA 600 mg (n = 27),+17.4 ± 70.6%
same,"Insulin, 6-Week Change (%)","[2]; EPA 600 mg (n = 27), Fast",+17.4 ± 70.6%
same,"Insulin, Final","[2]; EPA 600 mg (n = 27), Fast",10.2 ± 7.9 µIU/mL
same,"effects on C-reactive protein, interleukin-6, or tumor necrosis alpha",[3],no significant effects
same,reduction of triglyceride levels,[3]; 4 grams/day,18%
